Results as given in article PMC10065276, “Enhanced therapeutic window for antimicrobial Pept-ins by investigating their structure-activity relationship” (PLOS ONE, 2023).
Read-outs that look alike come from different tables or passages of the source. Residues, ends and D or L forms follow the SMILES beside them.

Columns and labels:
[1] = test system: HEK 293T cells; experiment: CellTiter Blue assay; assay type: cell-based, human; conditions: about 16 hours treatment, viability normalised to vehicle
Protocol: HEK 293T cells (ATCC CRL-3216) were grown in DMEM medium, supplemented with 10% FBS, 1 mM sodium pyruvate, non-essential amino acids. 100 μL of 10 000 cells were grown in flat-bottom 96-well plates (Fischer Scientific) overnight until cells are attached to the plate. Peptides were dissolved with Mini-plasco Nacl 0.9% (B. Braun) to 2 mg/mL and diluted to indicated concentrations using cell culture medium. Cells were treated by adding 100 μL peptides to each well for about 16 hours. Cells lysed with 1% Triton X-100 was included as a positive control. The toxicity of the peptide treatments was evaluated using the CellTiter-Blue Cell Viability Assay according to the instructions of the manufacturer (Promega, USA). The metabolic activity of viable cells is measured by recording fluorescence intensity at 590 nm after excitation at 560 nm. Cell viability is determined by normalising the fluorescence intensity of peptide- or triton-treated cells to the vehicle-treated sample.

[2] = test system: E. coli BL21
Outline: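 EUCAST broth microdilution in Mueller-Hinton medium; end-exponential culture diluted to 0.005 McF (~1.5x10^6 CFU/mL) before 1:1 mixing with two-fold peptide dilutions (0.75 to 100 μg/mL), triplicates.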

Compound: CC(C)C[C@H](NC(=O)CNC(=O)[C@H](CCCNC(=N)N)NC(=O)[C@@H]1CCCN1C(=O)[C@H](CCCNC(=N)N)NC(=O)[C@H](CCCNC(=N)N)NC(=O)[C@@H](NC(=O)[C@H](CC(C)C)NC(=O)[C@H](C)NC(=O)[C@H](CC(C)C)NC(=O)CNC(=O)[C@H](CC(C)C)NC(=O)CNC(=O)[C@@H](NC(=O)[C@H](Cc1ccccc1)NC(=O)[C@@H](NC(=O)[C@@H](N)CCCNC(=N)N)C(C)C)C(C)C)C(C)C)C(=O)NCC(=O)N[C@@H](CC(C)C)C(=O)N[C@@H](C)C(=O)N[C@@H](CC(C)C)C(=O)N[C@H](C(=O)N[C@@H](CCCNC(=N)N)C(=O)N[C@@H](CCCNC(=N)N)C(=O)O)C(C)C [Peptide P2_VFV] (H-RVFVGLGLALVRRPRGLGLALVRR-OH)
- toxicity on HEK 293T cells [1]: higher toxicity at 400 μg/mL and 200 μg/mL than P2

Compound: CC(C)C[C@H](NC(=O)CNC(=O)[C@H](CCCNC(=N)N)NC(=O)[C@H](CC(C)C)NC(=O)[C@H](C)NC(=O)[C@H](CCCNC(=N)N)NC(=O)[C@@H](NC(=O)[C@H](CC(C)C)NC(=O)[C@H](C)NC(=O)[C@H](CC(C)C)NC(=O)CNC(=O)[C@H](CC(C)C)NC(=O)CNC(=O)[C@@H](N)CCCNC(=N)N)C(C)C)C(=O)NCC(=O)N[C@@H](CC(C)C)C(=O)N[C@@H](C)C(=O)N[C@@H](CC(C)C)C(=O)N[C@H](C(=O)N[C@@H](C)C(=O)N[C@@H](CCCNC(=N)N)C(=O)O)C(C)C [Peptide P2_4R_L] (H-RGLGLALVRALRGLGLALVAR-OH)
- toxicity on HEK 293T cells [1]: induced toxicity effects

Compound: CC(C)C[C@H](NC(=O)CNC(=O)[C@H](CCCNC(=N)N)NC(=O)[C@@H](NC(=O)CNC(=O)[C@H](CCCNC(=N)N)NC(=O)[C@H](CCCNC(=N)N)NC(=O)[C@@H](NC(=O)[C@H](CC(C)C)NC(=O)[C@H](C)NC(=O)[C@H](CC(C)C)NC(=O)CNC(=O)[C@H](CC(C)C)NC(=O)CNC(=O)[C@@H](N)CCCNC(=N)N)C(C)C)C(C)C)C(=O)NCC(=O)N[C@@H](CC(C)C)C(=O)N[C@@H](C)C(=O)N[C@@H](CC(C)C)C(=O)N[C@H](C(=O)N[C@@H](CCCNC(=N)N)C(=O)N[C@@H](CCCNC(=N)N)C(=O)O)C(C)C [Peptide P2_GV] (H-RGLGLALVRRGVRGLGLALVRR-OH)
- toxicity on HEK 293T cells [1]: induced toxicity effects

Compound: CC(C)C[C@H](NC(=O)CNC(=O)[C@H](CCCNC(=N)N)NC(=O)[C@@H]1CCCN1C(=O)[C@H](CCCNC(=N)N)NC(=O)[C@H](CCCNC(=N)N)NC(=O)[C@@H](NC(=O)[C@H](C)NC(=O)[C@H](C)NC(=O)[C@H](CC(C)C)NC(=O)CNC(=O)[C@H](CC(C)C)NC(=O)CNC(=O)[C@@H](N)CCCNC(=N)N)C(C)C)C(=O)NCC(=O)N[C@@H](CC(C)C)C(=O)N[C@@H](C)C(=O)N[C@@H](CC(C)C)C(=O)N[C@H](C(=O)N[C@@H](CCCNC(=N)N)C(=O)N[C@@H](CCCNC(=N)N)C(=O)O)C(C)C [Peptide P2_L7A] (H-RGLGLAAVRRPRGLGLALVRR-OH)
- BL21 MIC ([2]; BL21, 17 h): 50.00 µg/mL

Compound: CC[C@H](C)[C@H](NC(=O)CNC(=O)[C@H](C)NC(=O)[C@H](CCCNC(=N)N)NC(=O)[C@@H]1CCCN1C(=O)[C@H](CCCNC(=N)N)NC(=O)[C@H](CCCNC(=N)N)NC(=O)[C@H](CC(C)C)NC(=O)[C@H](C)NC(=O)[C@@H](NC(=O)[C@H](C)NC(=O)[C@@H](NC(=O)CNC(=O)[C@H](CC(C)C)NC(=O)[C@@H](N)CCCNC(=N)N)[C@@H](C)CC)C(C)C)C(=O)N[C@@H](C)C(=O)N[C@H](C(=O)N[C@@H](C)C(=O)N[C@@H](CC(C)C)C(=O)N[C@@H](CCCNC(=N)N)C(=O)N[C@@H](CCCNC(=N)N)C(=O)O)C(C)C [Peptide P33-L13A] (H-RLGIAVALRRPRAGIAVALRR-OH)
- BL21 MIC ([2]; BL21, 17 h): 6.25 µg/mL

Compound: CC(C)C[C@H](NC(=O)CNC(=O)[C@H](CC(N)=O)NC(=O)[C@@H]1CCCN1C(=O)[C@H](CC(N)=O)NC(=O)[C@H](CC(N)=O)NC(=O)[C@@H](NC(=O)[C@H](CC(C)C)NC(=O)[C@H](C)NC(=O)[C@H](CC(C)C)NC(=O)CNC(=O)[C@H](CC(C)C)NC(=O)CNC(=O)[C@@H](N)CC(N)=O)C(C)C)C(=O)NCC(=O)N[C@@H](CC(C)C)C(=O)N[C@@H](C)C(=O)N[C@@H](CC(C)C)C(=O)N[C@H](C(=O)N[C@@H](CC(N)=O)C(=O)N[C@@H](CC(N)=O)C(=O)O)C(C)C [Peptide P2_N] (H-NGLGLALVNNPNGLGLALVNN-OH)
- BL21 MIC ([2]; S1 Table, gatekeeper modification, broth microdilution, MH medium, 37°C, 17 h): >100.00 µg/mL

Compound: CC(C)C[C@H](NC(=O)CNC(=O)[C@H](CCCNC(=N)N)NC(=O)[C@H](CCCNC(=N)N)NC(=O)[C@@H]1CCCN1C(=O)[C@H](CCCNC(=N)N)NC(=O)[C@@H](NC(=O)[C@H](CC(C)C)NC(=O)[C@H](C)NC(=O)[C@H](CC(C)C)NC(=O)CNC(=O)[C@H](CC(C)C)NC(=O)CNC(=O)[C@H](CCCNC(=N)N)NC(=O)[C@@H](N)CCCNC(=N)N)C(C)C)C(=O)NCC(=O)N[C@@H](CC(C)C)C(=O)N[C@@H](C)C(=O)N[C@@H](CC(C)C)C(=O)N[C@H](C(=O)N[C@@H](CCCNC(=N)N)C(=O)O)C(C)C [Peptide P2_GK_10] (H-RRGLGLALVRPRRGLGLALVR-OH)
- BL21 MIC ([2]; BL21, 17 h): 12.50 µg/mL

Compound: CC(C)C[C@H](NC(=O)CNC(=O)[C@H](CCCNC(=N)N)NC(=O)[C@H](C)NC(=O)[C@H](C)NC(=O)[C@H](CCCNC(=N)N)NC(=O)[C@@H](NC(=O)[C@H](CC(C)C)NC(=O)[C@H](C)NC(=O)[C@H](CC(C)C)NC(=O)CNC(=O)[C@H](CC(C)C)NC(=O)CNC(=O)[C@@H](N)CCCNC(=N)N)C(C)C)C(=O)NCC(=O)N[C@@H](CC(C)C)C(=O)N[C@@H](C)C(=O)N[C@@H](CC(C)C)C(=O)N[C@H](C(=O)N[C@@H](C)C(=O)N[C@@H](CCCNC(=N)N)C(=O)O)C(C)C [Peptide P2_4R_A] (H-RGLGLALVRAARGLGLALVAR-OH)
- BL21 MIC ([2]; BL21, 17 h): 12.50 µg/mL

Compound: CC(C)C[C@H](NC(=O)CNC(=O)[C@H](CCCNC(=N)N)NC(=O)[C@@H]1CCCN1C(=O)[C@H](CCCNC(=N)N)NC(=O)[C@H](CCCNC(=N)N)NC(=O)[C@@H](NC(=O)[C@H](CC(C)C)NC(=O)[C@H](C)NC(=O)[C@H](CC(C)C)NC(=O)CNC(=O)[C@H](CC(C)C)NC(=O)CNC(=O)[C@@H](N)CCCNC(=N)N)C(C)C)C(=O)NCC(=O)N[C@@H](C)C(=O)N[C@@H](C)C(=O)N[C@@H](CC(C)C)C(=O)N[C@H](C(=O)N[C@@H](CCCNC(=N)N)C(=O)N[C@@H](CCCNC(=N)N)C(=O)O)C(C)C [Peptide P2_L16A] (H-RGLGLALVRRPRGLGAALVRR-OH)
- BL21 MIC ([2]; BL21, 17 h): 50.00 µg/mL

Compound: CC(C)C[C@H](NC(=O)CNC(=O)[C@H](CCCNC(=N)N)NC(=O)[C@@H]1CSSC[C@H](NC(=O)[C@@H](NC(=O)[C@H](CC(C)C)NC(=O)[C@H](C)NC(=O)[C@H](CC(C)C)NC(=O)CNC(=O)[C@H](CC(C)C)NC(=O)CNC(=O)[C@@H](N)CCCNC(=N)N)C(C)C)C(=O)N[C@@H](CCCNC(=N)N)C(=O)N[C@@H](CCCNC(=N)N)C(=O)N[C@H](Cc2ccccc2)C(=O)N2CCC[C@H]2C(=O)N1)C(=O)NCC(=O)N[C@@H](CC(C)C)C(=O)N[C@@H](C)C(=O)N[C@@H](CC(C)C)C(=O)N[C@H](C(=O)N[C@@H](CCCNC(=N)N)C(=O)N[C@@H](CCCNC(=N)N)C(=O)O)C(C)C [Peptide P2_H12_fP]
- BL21 MIC, SS bond ([2]; BL21, 17 h): 3.13 µg/mL
- BL21 MIC, no SS bond ([2]; BL21, 17 h): 6.25 µg/mL

Compound: CC(C)C[C@H](NC(=O)CNC(=O)[C@@H](N)CCCNC(=N)N)C(=O)NCC(=O)N[C@@H](CC(C)C)C(=O)N[C@@H](C)C(=O)N[C@@H](CC(C)C)C(=O)N[C@H](C(=O)N[C@@H](CCCNC(=N)N)C(=O)N[C@@H](CCCNC(=N)N)C(=O)N1CCC[C@H]1C(=O)N[C@@H](CCCNC(=N)N)C(=O)NCC(=O)N[C@@H](CC(C)C)C(=O)N[C@@H](C)C(=O)N[C@@H](CC(C)C)C(=O)N[C@@H](C)C(=O)N[C@@H](CC(C)C)C(=O)N[C@H](C(=O)N[C@@H](CCCNC(=N)N)C(=O)N[C@@H](CCCNC(=N)N)C(=O)O)C(C)C)C(C)C [Peptide P2_G15A] (H-RGLGLALVRRPRGLALALVRR-OH)
- BL21 MIC ([2]; BL21, 17 h): 12.50 µg/mL
